Measured values from patent publication US11518760B2 (Liverpool School of Tropical Medicine, priority 2017, dated 2022).

System: C6/36 Aedes albopictus cell line infected with Wolbachia pipientis (Wolbachia strain wAlbB)
Test: In vitro insect cell line assay (anti-Wolbachia screen, SYTO 11 high content imaging)
Assay type: cell-based
Settings: 168 h; C6/36 Aedes albopictus cells infected with Wolbachia pipientis wAlbB, 7 days incubation, SYTO 11 imaging; read-out: In vitro anti-Wolbachia activity
Protocol: A C6/36 Aedes albopictus cell line infected with Wolbachia pipientis (Wolbachia strain wAlbB) derived from Aa23 A. albopictus cell line (O'Neill et al., 1997; Insect Mol Biol; Turner et al., (2006) J. Immunol. 7:1240-1249) was used to screen compounds. Cells were cultured in Leibovitz's L15+L-glutamine supplemented with heat-inactivated Foetal Calf Serum (HI-FCS), non-essential amino acids and tryptose phosphate broth. Culture medium was filter-sterilized through a 0.2 μm filter and stored at 4° C. Compounds were provided as 10 mM stocks in DMSO, diluted to 50 μM working stock to give final concentration of 5 μM on the test plate. Concentrated stocks were frozen at −20° C.
Prior to use in the screening assay, cell cultures were sub-passaged (6 days prior) to provide ˜90% confluent cells on Day 0 of screening assay. On Day 0 (assay set-up), the medium was removed from the stock culture flask and replaced with fresh medium. The cells were detached by scraping and cell density was calculated using an automated cell counter. The cells were then diluted at working density and aliquoted at 90 μl to each well of a Cell Carrier 384 well plate (Perkin Elmer). Cell plates were incubated at 26° C.
Control solution (DMSO-medium) was dispensed at 10 μl per well for “untreated” wells. Test solution (Drug-DMSO) was also dispensed at 10 μl (from working plate) per well for “treated” wells. The plates were incubated at 26° C., inside plastic wallet in incubator, for 7 days.
On Day 7, 25 μl of staining medium/dye (SYTO 11, Life Technologies) was added to each sample well and allowed to stain for 15 minutes in the dark. All the medium was removed from each sample well without disturbing the cells and replaced with 100 μl of fresh medium. Plates were imaged on the Operetta High Content Imaging system (Perkin Elmer) and analyzed using texture analysis through Harmony software (Perkin Elmer). The cell-based screen and analysis are described in detail in Clare et al. (2014) J Biomol Screen.

`CC(C)Nc1nc(NCc2ccccc2F)c2ccccc2n1` [Example 135, N^4-(2-fluorobenzyl)-N^2-isopropylquinazoline-2,4-diamine] and `CC(C)Nc1nc(NCc2ccc(C#N)cc2)c2ncccc2n1` [Example 121, N^4-(4-cyanobenzyl)-N^2-isopropylpyrido[3,2-d]pyrimidine-2,4-diamine] fall in the same range of EC50: 1000 to 100000 nM for the first, 1000 to 100000 nM for the second.

`CN(Cc1ccccc1)c1nc(NCCCN2CCCC2=O)c2sccc2n1` [Example 36, 1-(3-((2-(benzyl(methyl)amino)thieno[3,2-d]pyrimidin-4-yl)amino)propyl)pyrrolidin-2-one] and `O=C1CCCN1CCCNc1ncnc2ccsc12` [Example 34, 1-(3-(thieno[3,2-d]pyrimidin-4-ylamino)propyl)pyrrolidin-2-one] fall in the same range of EC50: 1000 to 100000 nM for the first, 1000 to 100000 nM for the second.

First: FC1(F)CCN(c2nc(NCc3ccccc3C(F)(F)F)c3cccnc3n2)CC1 [Example 196, 2-(4,4-difluoropiperidin-1-yl)-N-(2-(trifluoromethyl)benzyl)pyrido[2,3-d]pyrimidin-4-amine]
Second: CS(=O)(=O)C1CCN(c2nc(NCc3ccccc3C(F)(F)F)c3cccnc3n2)CC1 [Example 243, 2-(4-(methylsulfonyl)piperidin-1-yl)-N-(2-(trifluoromethyl)benzyl)pyrido[2,3-d]pyrimidin-4-amine]
The EC50 of the first is lower: 0.01 to 1 nM for the first, 100 to 1000 nM for the second. The first is the more potent here.

`CC(C)Nc1nc(NCc2ccc(C(F)(F)F)cc2)c2ncccc2n1` [Example 124, N^2-isopropyl-N^4-(4-(trifluoromethyl)benzyl)pyrido[3,2-d]pyrimidine-2,4-diamine] and `CC(C)Nc1nc(NCc2ccc(C(F)(F)F)cc2)c2sccc2n1` [Example 109, N^2-isopropyl-N^4-(4-(trifluoromethyl)benzyl)thieno[3,2-d]pyrimidine-2,4-diamine] fall in the same range of EC50: 1000 to 100000 nM for the first, 1000 to 100000 nM for the second.

`CC1COC[C@@H](C)N1c1nc(NCc2ccccc2C(F)(F)F)c2cccnc2n1` (stereo partly drawn) [Example 277, 2-((3R)-3,5-dimethylmorpholino)-N-(2-(trifluoromethyl)benzyl)pyrido[2,3-d]pyrimidin-4-amine] and `CC1CN(c2nc(NCc3ccccc3C(F)(F)F)c3cccnc3n2)C[C@H](C)O1` (stereo partly drawn) [Example 268, 2-((6S)-2,6-dimethylmorpholino)-N-(2-(trifluoromethyl)benzyl)pyrido[2,3-d]pyrimidin-4-amine] fall in the same range of EC50: 10 to 100 nM for the first, 10 to 100 nM for the second.

Compared with `C[C@@H]1CO[C@@H](C)CN1c1nc(NCc2cccnc2C(F)(F)F)c2cccnc2n1` [Example 271, 2-((2S,5R)-2,5-dimethylmorpholino)-N-((2-(trifluoromethyl)pyridin-3-yl)methyl)pyrido[2,3-d]pyrimidin-4-amine], `C[C@@H]1[C@@H](C)OCCN1c1nc(NCc2cccnc2C(F)(F)F)c2cccnc2n1` [Example 270, 2-((2R,3R)-2,3-dimethylmorpholino)-N-((2-(trifluoromethyl)pyridin-3-yl)methyl)pyrido[2,3-d]pyrimidin-4-amine] is higher in EC50: 0.01 to 1 nM for the first, 1 to 10 nM for the second. The first is the more potent here.

`FC1(F)CCN(c2nc(N3CCC3c3cccnc3C(F)(F)F)c3cccnc3n2)CC1` (stereo not drawn) [Example 218, 2-(4,4-difluoropiperidin-1-yl)-4-(2-(2-(trifluoromethyl)pyridin-3-yl)azetidin-1-yl)pyrido[2,3-d]pyrimidine] and `FC1(F)CCN(c2nc(N3CCC3c3cccnc3C(F)(F)F)c3cccnc3n2)C1` (stereo not drawn) [Example 220, 2-(3,3-difluoropyrrolidin-1-yl)-4-(2-(2-(trifluoromethyl)pyridin-3-yl)azetidin-1-yl)pyrido[2,3-d]pyrimidine] fall in the same range of EC50: 0.01 to 1 nM for the first, 0.01 to 1 nM for the second.

First: CC1COCCN1Cc1nc(NCc2ccccc2C(F)(F)F)c2cccnc2n1 (stereo not drawn) [Example 224]
Second: FC(F)(F)c1ccccc1CNc1nc(NC2COC2)nc2ncccc12 [Example 144, N^2-(oxetan-3-yl)-N^4-(2-(trifluoromethyl)benzyl)pyrido[2,3-d]pyrimidine-2,4-diamine]
The EC50 of the first is higher: 1000 to 100000 nM for the first, 10 to 100 nM for the second. The second is the more potent here.

First: CNCc1nc(NCc2ccccc2C(F)(F)F)c2sccc2n1 [Example 154, 2-((methylamino)methyl)-N-(2-(trifluoromethyl)benzyl)thieno[3,2-d]pyrimidin-4-amine]
Second: Clc1nc(NCc2ccccc2Cl)c2sccc2n1 [Example 21, 2-chloro-N-(2-chlorobenzyl)thieno[3,2-d]pyrimidin-4-amine]
The EC50 of the first is higher: 1000 to 100000 nM for the first, 10 to 100 nM for the second. The second is the more potent here.

First: CN(Cc1ccccc1C(F)(F)F)c1nc(C(F)(F)F)nc2ccsc12 [Example 62, N-methyl-2-(trifluoromethyl)-N-(2-(trifluoromethyl)benzyl)thieno[3,2-d]pyrimidin-4-amine]
Second: CC(c1ccccc1C(F)(F)F)N(C)c1nc(Cl)nc2ccsc12 (stereo not drawn) [Example 67, 2-chloro-N-methyl-N-(1-(2-(trifluoromethyl)phenyl)ethyl)thieno[3,2-d]pyrimidin-4-amine]
The EC50 of the first is lower: 10 to 100 nM for the first, 100 to 1000 nM for the second.

First: CC1COCCN1c1nc(NCc2cccnc2C(F)(F)F)c2cc(F)cnc2n1 (stereo not drawn) [Example 303, 6-fluoro-2-(3-methylmorpholino)-N-((2-(trifluoromethyl)pyridin-3-yl)methyl)pyrido[2,3-d]pyrimidin-4-amine]
Second: C[C@@H]1COCCN1c1nc(NCc2cccnc2C(F)(F)F)c2cccnc2n1 [Example 211, (R)-2-(3-methylmorpholino)-N-((2-(trifluoromethyl)pyridin-3-yl)methyl)pyrido[2,3-d]pyrimidin-4-amine]
The EC50 of the first is higher: 100 to 1000 nM for the first, 10 to 100 nM for the second. The second is the more potent here.

First: CC(C)[S+]([O-])c1nc(NCc2cccnc2C(F)(F)F)c2cccnc2n1 (stereo not drawn) [Example 178, 2-(isopropylsulfinyl)-N-((2-(trifluoromethyl)pyridin-3-yl)methyl)pyrido[2,3-d]pyrimidin-4-amine]
Second: N#CC1CN(c2nc(NCc3cccnc3C(F)(F)F)c3cccnc3n2)C1 [Example 237, 1-(4-(((2-(trifluoromethyl)pyridin-3-yl)methyl)amino)pyrido[2,3-d]pyrimidin-2-yl)azetidine-3-carbonitrile]
The EC50 of the first is higher: 1000 to 100000 nM for the first, 100 to 1000 nM for the second.

Compared with `FC(F)(F)c1ncccc1CNc1nc(N2CC3CC2CO3)nc2ncccc12` (stereo not drawn) [Example 255, 2-(2-oxa-5-azabicyclo[2.2.1]heptan-5-yl)-N-((2-(trifluoromethyl)pyridin-3-yl)methyl)pyrido[2,3-d]pyrimidin-4-amine], `N#CC1CCCN1c1nc(NCc2cccnc2C(F)(F)F)c2cccnc2n1` (stereo not drawn) [Example 238, 1-(4-(((2-(trifluoromethyl)pyridin-3-yl)methyl)amino)pyrido[2,3-d]pyrimidin-2-yl)pyrrolidine-2-carbonitrile] is higher in EC50: 1 to 10 nM for the first, 10 to 100 nM for the second.

Compared with `CS(=O)(=O)C1CCN(c2nc(NCc3cccnc3C(F)(F)F)c3cccnc3n2)C1` (stereo not drawn) [Example 263, 2-(3-(methylsulfonyl)pyrrolidin-1-yl)-N-((2-(trifluoromethyl)pyridin-3-yl)methyl)pyrido[2,3-d]pyrimidin-4-amine], `FC(F)(F)c1ncccc1CNc1nc(N2CCC(C(F)(F)F)C2)nc2ncccc12` (stereo not drawn) [Example 236, N-((2-(trifluoromethyl)pyridin-3-yl)methyl)-2-(3-(trifluoromethyl)pyrrolidin-1-yl)pyrido[2,3-d]pyrimidin-4-amine] is lower in EC50: 100 to 1000 nM for the first, less than 0.01 nM for the second.

`N#CC1CCCN(c2nc(NCc3ccccc3C(F)(F)F)c3cccnc3n2)C1` (stereo not drawn) [Example 262, 1-(4-((2-(trifluoromethyl)benzyl)amino)pyrido[2,3-d]pyrimidin-2-yl)piperidine-3-carbonitrile] and `CC1CN(c2nc(NCc3cccnc3C(F)(F)F)c3cccnc3n2)C[C@H](C)O1` (stereo partly drawn) [Example 254, 2-((6S)-2,6-dimethylmorpholino)-N-((2-(trifluoromethyl)pyridin-3-yl)methyl)pyrido[2,3-d]pyrimidin-4-amine] fall in the same range of EC50: 0.01 to 1 nM for the first, 0.01 to 1 nM for the second.

`O=C(Nc1ncnc2ccsc12)c1ccccc1Cl` [Example 40, 2-chloro-N-(thieno[3,2-d]pyrimidin-4-yl)benzamide] and `FC(F)(F)c1cccc2c1CN(c1ncnc3ccsc13)C2` [Example 83] fall in the same range of EC50: 1000 to 100000 nM for the first, 1000 to 100000 nM for the second.

First: FC(F)(F)c1ncccc1C1CCN1c1nc(N2CC(C(F)(F)F)C2)nc2ncccc12 (stereo not drawn) [Example 221, 2-(3-(trifluoromethyl)azetidin-1-yl)-4-(2-(2-(trifluoromethyl)pyridin-3-yl)azetidin-1-yl)pyrido[2,3-d]pyrimidine]
Second: CC(C)N(C)c1nc(N2CCCN2c2ccccc2C(F)(F)F)c2cccnc2n1 [Example 190, N-isopropyl-N-methyl-4-(2-(2-(trifluoromethyl)phenyl)pyrazolidin-1-yl)pyrido[2,3-d]pyrimidin-2-amine]
The EC50 of the first is lower: 1 to 10 nM for the first, 100 to 1000 nM for the second. The first is the more potent here.

In the case of `Cc1csc2c(NC(C)c3ccccc3C(F)(F)F)ncnc12` (stereo not drawn) [Example 105, 7-methyl-N-(1-(2-(trifluoromethyl)phenyl)ethyl)thieno[3,2-d]pyrimidin-4-amine], the EC50 is reported as 1000 to 100000 nM.

Same assay, conditions: C6/36 Aedes albopictus cells infected with Wolbachia pipientis wAlbB, 7 days incubation, SYTO 11 imaging; read-out: In vitro anti-Wolbachia activity

Work on “2-((3,3-difluoropyrrolidin-1-yl)methyl)-N-((2-(trifluoromethyl)pyridin-3-yl)methyl)pyrido[2,3-d]pyrimidin-4-amine [Example 225]” yielded an EC50 of 1000 to 100000 nM.
